{"source": "patent US12103939B2", "about": "“Solid pharmaceutical gold-based composition” (KING FAHD UNIVERSITY OF PETROLEUM AND MINERALS, priority 2019, dated 2024)", "assay_type_in_all_cases": "cell-based, human", "key": {"PC3 cells [1]": {"system": "PC3 cells", "test": "Cellular uptake of gold(III) complexes (ICP-MS)", "conditions": "3 μM, 2 h, ICP mass spectrometry", "procedure": "After treatment, monolayers were washed with ice-cold PBS four times, and the cells were detached with trypsin-EDTA and washed three times with ice-cold PBS by centrifugation. The cell pellet was solubilized in 700 μL of HNO3—HCl solution (1:3 molar ratio) for 2 h at 100° C., and then diluted with 4 mL water. Samples were analyzed for gold on an Agilent 7500 inductively coupled plasma mass spectrometer (ICP-MS). Results were expressed as ng gold/10^6 cells. The experiment was performed a total of two times and the results were expressed as mean and SD."}, "PC3 cells [2]": {"system": "PC3 cells", "test": "Apoptosis assay (Annexin V-FITC / propidium iodide, flow cytometry)", "conditions": "PC3, C6 at IC50 and IC75, 24 h", "procedure": "(§1) For apoptosis assays, PC3 cells were treated with C6 for 24 h and then apoptosis was assayed by staining for 15 min with FITC Annexin V reagent (BD Pharmingen) and propidium iodide (PI). Apoptotic cells were detected by flow cytometry (BD FACSCanto II flow cytometer) and analyzed using BD FACSDiva v8.0.1 software (BD Biosciences). Caspase 3,7 activation was evaluated using fluorochrome-labeled inhibitors of caspases (FLICA) of the CaspaTag Caspase 3,7 In Situ Assay Kit, Fluorescein (Millipore) and evaluated by flow cytometry; data were expressed as mean fluorescence intensity."}, "caspase 3,7": {"system": "caspase 3,7", "test": "Caspase 3,7 activation (FLICA, flow cytometry)", "conditions": "PC3, 24 h", "procedure": "as §1"}, "PC3 cells [3]": {"system": "PC3 cells", "test": "Cell cycle distribution (PI staining)", "conditions": "vs untreated cells", "procedure": "To assay the distribution of cells in the various phases of the cell cycle, PC3 cells were treated with C6 for 48 h, then harvested, fixed in cold 70% ethanol for 15 min and stained with PI solution (50 μg/mL PI, 0.1% NP-40, 100 μg/mL PureLink RNase A, 0.1% sodium citrate). After 1 h, cells were analyzed by flow cytometry. The distribution of cells in different cell cycle phases was quantified using ModFit LT 4.0 software."}}}
{"smiles": "C[N+](C)=C1[S][Au-]2([S]1)[n+]1ccc[n+]3c1-c1[n+]2ccc[n+]1[Au-]31[S]C(=[N+](C)C)[S]1.[Cl-].[Cl-].[Cl-].[Cl-]", "note": "[C6, [Au2(BPM)(DMDTC)2]Cl4]", "values": [{"measurement": "amount of internalized gold (cellular uptake)", "setting": "PC3 cells [1]", "result": "internalization even greater than that of C7"}, {"measurement": "percentage of annexin-V-positive and annexin-V/PI-positive cells (apoptosis)", "setting": "PC3 cells [2]", "result": "dose-dependent increase in the percentage of annexin-V-positive cells"}, {"measurement": "caspase 3,7 activation (FLICA)", "setting": "caspase 3,7", "result": "activated caspase 3,7"}, {"measurement": "distribution of cells in the cell cycle", "setting": "PC3 cells [3]", "result": "increasing the percentage of cells in S phase and decreasing that in G1"}]}
